Reference: PMC7170498, “Targeted alpha therapy using astatine (^211At)-labeled phenylalanine: A preclinical study in glioma bearing mice” (Oncotarget, 2020)

Tests used:
C6 glioma cells = experiment: In vitro cellular uptake and inhibition assay of ^211At-PA; format: cell-based; conditions: Rattus norvegicus, 20 mM BCH added 5 min before para-^211At-PA, compared to baseline, read-out: inhibition of ^211At-PA uptake by addition of BCH
Experimental: (§1) The C6 rat glioma cell line was provided by RIKEN BRC (Tsukuba, Japan) and cultured in F-12K medium (Gibco, Grand Island, NY, USA) containing 10% fetal bovine serum (FBS; Sigma-Aldrich). The U-87 MG human glioblastoma cell line was purchased from American Type Culture Collection (Manassas, VA, USA) and cultured in Modified Eagle’s medium (MEM; Sigma-Aldrich, St. Louis, MO, USA) containing 1% Non Essential Amino Acids (NEAA) + 1 mM Sodium Pyruvate (NaP) and 10% FBS. The GL261 murine glioma cell line was provided by the In Vivo Cellular and Molecular Imaging Lab at Vrije Universiteit, Brussels and cultured in high-glucose Dulbecco’s MEM (DMEM; Wako Pure Chemical, Osaka, Japan) containing 10% FBS. All cells were maintained at 37°C in a humidified incubator containing 5% CO2 and were washed with phosphate-buffered saline (PBS) and harvested with trypsin as necessary. LAT1 expression of these cells were confirmed in previous studies.
(§2) Initially, the cells were seeded onto a 24-well plate (density: 1 × 10^5/well) and cultured for 2 days. […] Counts per minute (CPM) of the samples were measured by gamma counter. The protein concentrations were measured using the BCA protein assay kit (FUJIFILM Wako Pure Chemical) and a plate reader (Multiskan FC, ThermoFisher Scientific, USA). […]

U-87MG cells = experiment: as above; format: cell-based; conditions: Homo sapiens, 20 mM BCH added 5 min before para-^211At-PA, compared to baseline, read-out: inhibition of ^211At-PA uptake by addition of BCH
Experimental: as §1, §2

GL261 cells = experiment: as above; format: cell-based, murine; conditions: Mus musculus, 20 mM BCH added 5 min before para-^211At-PA, compared to baseline, read-out: inhibition of ^211At-PA uptake by addition of BCH
Experimental: as §1, §2

thyroid gland = conditions: ^211At-astatide deastatinated from ^211At-PA; cited from earlier work
[1] = Biodistribution and iodine blocking effect in normal ICR mice; format: in vivo, mouse; conditions: for residence time in major organs (meta- versus para-): intravenous
Experimental: For the biodistribution study, para- or meta-^211At-PA (0.53 ± 0.04 MBq) was injected into normal male ICR mice (n = 18, 9 weeks old, body weight = 37.7 ± 1.3 g). The mice were sacrificed by euthanasia at 1, 3, and 24 hr post-injection. For the iodine blocking study, normal male ICR mice (n = 6, 9 weeks old, body weight = 37.9 ± 0.9 g) were fed with 2-week iodine-restricted diet. […] The mice were euthanized 3 hr post-administration of para-^211At-PA (0.5 MBq) and dissected.
The major organs (brain, thyroid gland, salivary gland, heart, lung, esophagus, liver, stomach, small intestine, large intestine, kidney, adrenal gland, pancreas, spleen, and testes) and the blood were collected from each mouse, and the radioactivity and weight of each sample were measured using an AccuFlex γ7000 device (Hitachi, Aloka, Japan). Radioactivity counts were normalized by calibration with a standard solution of ^211At. The residence time (hr) was calculated using the trapezoidal method without decay correction.

[2] = Stability of the radiolabeled products in vials; format: physicochemical; conditions: for 24 hr
Experimental: Ascorbic acid, para-borono-L-phenylalanine (para-BPA), meta-borono-D, L-phenylalanine (meta-BPA), N-bromosuccinimide (NBS), and an injectable solution of 7% sodium hydrogen carbonate (7% NaHCO3) were purchased from Nacalai Tesque (Kyoto, Japan). For the experiments, 1 mg of para-BPA (or meta-BPA) was dissolved in 0.1 mL of 7% NaHCO3. Next, 0.1 mL of the 1% (w/v) para-BPA (or meta-BPA) solution and an aliquot of ^211At aqueous solution (10–20 MBq) were poured into a glass vial, stirred, and mixed with 30 μL of an aqueous solution of 0.4% (w/v) NBS for 30 min at room temperature. Finally, 30 μL of an aqueous solution of 3% (w/v) ascorbic acid was added to the mixture to stop the oxidation reaction, and the mixture was purified using solid-phase extraction. The purified para-^211At-PA or meta-^211At-PA was then analyzed using a high-performance liquid chromatography system (Shimazdu, Kyoto) equipped with a reverse-phase Cosmosil column (5C18 MS2, 150 mm × 4.6 mm; Nacalai Tesque). The products were eluted using a gradient solvent system (0–100% acetonitrile in water) for 20 min and then measured using a gamma-ray detector (GABI star, Elysia-raytest, Germany) and a UV detector at 254 nm.

C6 glioma xenograft [3] = experiment: Planar imaging and tumor dosimetry in C6 glioma-bearing mice; format: in vivo, mouse
Experimental: (§3) All animal experiments were performed in compliance with the guidelines of the Institute of Experimental Animal Sciences. The protocol was approved by the Animal Care and Use Committee of the Osaka University Graduate School of Medicine. Normal ICR, normal C57BL/6, and nude mice (male) were purchased from Japan SLC Inc. (Hamamatsu, Japan). All animals were housed under a 12-h light/12-hr dark cycle, and given free access to food and water. C6 glioma cells (5.0 × 10^6 cells) or GL-261 cells (1.0 × 10^7 cells) were suspended in 100 μL of culture medium and Matrigel (1:1 ratio; BD Biosciences, Franklin Lakes, NJ, USA). Tumor xenograft and allograft models were prepared via the subcutaneous injection of this C6 glioma cell suspension into each immunodeficient nude mouse (n = 12) and the GL-261 cell suspension into each immunocompetent C57BL/6 mouse (n = 12), respectively.
(§4) Para-^211At-PA was injected into mice bearing C6 glioma xenografts (n = 9; 15 weeks old; body weight = 23.8 ± 1.2 g) and GL261 allografts (n = 7; 8 weeks old; body weight = 23.6 ± 1.2 g) at 23 and 20–21 days after implantation, respectively. […] The tumor uptake was calculated as the percent injected dose (%ID). […] The tumor sizes (mm^3) were monitored using a caliper, calculated using the following elliptical sphere model equation, and compared between the injected and control groups of mice.

[4] = biological target: T1, L-type amino acid transporter-1 (LAT1) (Homo sapiens, UniProt Q01650); experiment: Transport of para-^211At-PA into Xenopus oocytes expressing LAT1 (compared with LAT2); format: cell-based; conditions: Xenopus oocytes co-expressing 4F2hc; choline buffer; 5, 15, 45 min
T1 construct: expressed in transfected cells; host or cells: defolliculated Xenopus oocytes injected with polyadenylated cRNA (25 ng/oocyte)
Experimental: Supplementary Figure 1 lists the cDNAs of human transporters used in this study. First, cRNAs were synthesized in vitro from linearized plasmids using the mMessage mMachine Kit, polyadenylated with a Poly (A) Tailing Kit, and purified with a MEGAclear Kit (all kits: ThermoFisher Scientific, Waltham, MA, USA) according to the manufacturer’s protocols. Next, defolliculated Xenopus oocytes were injected with polyadenylated cRNA (25 ng/oocyte) to induce expression. An equimolar amount of 4F2hc cRNA was co-injected to ensure the functional expression of LAT1 and LAT2 [24–26].
Amino acid transport was measured in the oocytes 2–4 days after cRNA injection, as previously described. Briefly, the oocytes were incubated at room temperature with 500 μL of uptake buffer (choline uptake solution: 100 mM (CH3)3N (Cl) CH2CH2OH, 2 mM KCl, 1.8 mM CaCl2.2H2O, 1 mM MgCl2, 5 mM HEPES, pH 7.5) containing ^211At-PA (approximately 10kBq/oocyte). Radioactivity was determined using a gamma counter. Nine to 11 oocytes were used for each transport measurement. Two separate experiments were performed using different batches of oocytes to confirm the reproducibility of the results.

GL261 allograft = experiment: Treatment effect in GL261 allograft mice; format: in vivo, mouse
Experimental: as §3
as §4, with “mice. […]” for “mice.”

[5] = tested on: intracranial glioblastomas; parameters: method as in PMID 24036694; conditions: intravenous treatment; rats with intracranial glioblastomas; cited from earlier work
C6 glioma xenograft [6] = experiment: Treatment effect in C6 glioma xenograft mice; format: in vivo, mouse; conditions: for tumor size ratio (relative to the control): 3 weeks post-injection
Experimental: as §3
Para-^211At-PA was injected into mice bearing C6 glioma xenografts (n = 9; 15 weeks old; body weight = 23.8 ± 1.2 g) and GL261 allografts (n = 7; 8 weeks old; body weight = 23.6 ± 1.2 g) at 23 and 20–21 days after implantation, respectively. C6 glioma xenograft mice were divided into four groups according to the injected dose: 1 MBq (n = 3, 1.19 ± 0.05 MBq), 0.5 MBq (n = 3, 0.55 ± 0.02 MBq), 0.1 MBq (n = 3, 0.09 ± 0.03 MBq), and control mice without para-^211At-PA administration (n = 3). GL261 allograft mice were divided into two groups: 1 MBq (n = 7, 1.07 ± 0.07 MBq) and control (n = 5). Planar imaging was performed using a gamma camera system (E-cam, Siemens) at 30 min and 3 hr after para-^211At-PA administration. This system targeted the X-rays emitted from the daughter nuclide, ^211Po (energy window: 79 keV ± 20%) (6). Image analysis was performed using AMIDE software (ver. 1.0.4). The tumor uptake was calculated as the percent injected dose (%ID). The absorbed dose (Gy) in the tumor was estimated according to a previous report with the normalization to the tumor volume in the calculation process. The tumor sizes (mm^3) were monitored using a caliper, calculated using the following elliptical sphere model equation, and compared between the injected and control groups of mice.
V = 4/3*π*a^2*b (V: volume of the tumor (mm^3), a: shorter radius (mm) and b: longer radius (mm))

glioblastoma = tested on: glioblastoma; parameters: method as in PMID 19269895; conditions: patients with glioblastoma after temozolomide therapy; cited from earlier work
[7] = NaI 10 mg/kg i.v. 24 and 3 hr before, 3 hr post-administration

T1 sequence (Q01650 whole entry): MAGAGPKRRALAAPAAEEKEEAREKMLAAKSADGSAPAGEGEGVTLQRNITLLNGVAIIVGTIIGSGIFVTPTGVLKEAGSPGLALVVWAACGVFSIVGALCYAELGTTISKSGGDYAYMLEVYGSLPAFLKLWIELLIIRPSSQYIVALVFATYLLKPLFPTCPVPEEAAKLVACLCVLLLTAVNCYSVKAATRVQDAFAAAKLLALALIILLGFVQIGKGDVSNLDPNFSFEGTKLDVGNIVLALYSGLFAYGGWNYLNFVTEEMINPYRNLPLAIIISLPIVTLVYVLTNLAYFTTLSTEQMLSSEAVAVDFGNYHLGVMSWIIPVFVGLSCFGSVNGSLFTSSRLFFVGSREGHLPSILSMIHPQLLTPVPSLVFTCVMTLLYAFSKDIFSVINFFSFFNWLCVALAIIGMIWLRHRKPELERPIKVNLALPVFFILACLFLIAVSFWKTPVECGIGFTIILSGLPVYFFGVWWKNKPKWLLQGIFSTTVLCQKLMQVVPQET
T1 sequence (P08195 102-630 partner): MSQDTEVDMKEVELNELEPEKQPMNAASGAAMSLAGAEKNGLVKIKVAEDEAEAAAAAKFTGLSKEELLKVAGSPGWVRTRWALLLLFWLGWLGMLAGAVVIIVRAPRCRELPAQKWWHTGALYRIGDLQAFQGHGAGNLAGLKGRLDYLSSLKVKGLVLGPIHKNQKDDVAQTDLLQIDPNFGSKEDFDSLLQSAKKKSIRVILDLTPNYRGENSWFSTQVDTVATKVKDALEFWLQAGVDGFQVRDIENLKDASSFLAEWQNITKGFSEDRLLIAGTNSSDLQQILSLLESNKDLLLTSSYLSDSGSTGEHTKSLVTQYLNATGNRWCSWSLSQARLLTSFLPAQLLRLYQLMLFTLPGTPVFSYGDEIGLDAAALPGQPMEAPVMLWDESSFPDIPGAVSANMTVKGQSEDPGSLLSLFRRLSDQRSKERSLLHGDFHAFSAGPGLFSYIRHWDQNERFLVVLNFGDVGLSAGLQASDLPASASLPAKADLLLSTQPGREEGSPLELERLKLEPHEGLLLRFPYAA

## NC1(C(=O)O)CC2CCC1C2 (stereo not drawn) [BCH, 2-aminobicyclo-(2,2,1)-heptane-2-carboxylic acid]
C6 glioma cells
  inhibition at 20000 µM: 12.2 ± 0.8%
U-87MG cells
  inhibition at 20000 µM: 27.6 ± 1.1%
GL261 cells
  inhibition at 20000 µM: 12.6 ± 2%

## [211AtH] [^211At-astatide]
Thyroid gland
  reduction of thyroid uptake following pre-administration of iodine: 80%

## N[C@@H](Cc1cccc([211At])c1)C(=O)O [meta-^211At-PA]
[1]
  residence time in major organs (meta- versus para-): comparable results
[2]
  stability in vials: remained stable

## N[C@@H](Cc1ccc([211At])cc1)C(=O)O [para-^211At-PA, ^211At-para-astato-L-PA]
C6 glioma xenograft [3]; 30 min post-injection
  tumor uptake (planar imaging): 3.7 ± 0.8 %ID
C6 glioma xenograft [3]; 3 hr post-injection
  tumor uptake (planar imaging): 1.5 ± 0.2 %ID
[1]; [7]
  accumulation in the heart and spleen with iodine blocking: increased accumulation
  decrease in accumulation in the thyroid by iodine blocking: 81%
[1]
  residence time in major organs (meta- versus para-): comparable results
[4]
  transport into oocytes by LAT1 compared with LAT2: Significantly greater transport
GL261 allograft; 1 MBq, day 32
  relative tumor size: 0.24
GL261 allograft; GL261 allograft model
  changes in body weights versus control mice: No significant differences
[5]
  health conditions and survival durations: improved the health conditions and enhanced the survival durations
[2]
  stability in vials: remained stable
C6 glioma xenograft [6]; 0.1 MBq
  tumor size ratio (relative to the control): 0.60
C6 glioma xenograft [6]; 0.5 MBq
  tumor size ratio (relative to the control): 0.40
C6 glioma xenograft [6]; 1 MBq
  tumor size ratio (relative to the control): 0.25
C6 glioma xenograft [6]; C6 glioma xenograft model
  changes in body weights versus control mice: No significant differences

## Cn1nnc2c(C(N)=O)ncn2c1=O [temozolomide]
glioblastoma
  5-year overall survival rate: 9.8%
